Source: paper PMC6965176, “Targeting Forward and Reverse EphB4/EFNB2 Signaling by a Peptide with Dual Functions” (Scientific Reports, 2020)
Non-standard residues stand in square brackets, D forms with d. Residues, ends and D or L forms follow the SMILES beside them. No end group written: not given here.

How the values were obtained:
EphB4 = target: T1, EphB4 (Homo sapiens, UniProt P54760); assay: SPR (BIACore) binding of peptides to immobilized EphB4; conditions: Table S1; SPR BIACore, EphB4 immobilized on CM5 chip, 25°C, HBSEP buffer pH 7.4, peptides 1.6-800 nM, duplicate, KD = Koff/Kon, 1:1 Langmuir model
T1 construct: purchased R&D Systems
T1 sequence (P54760 16-987): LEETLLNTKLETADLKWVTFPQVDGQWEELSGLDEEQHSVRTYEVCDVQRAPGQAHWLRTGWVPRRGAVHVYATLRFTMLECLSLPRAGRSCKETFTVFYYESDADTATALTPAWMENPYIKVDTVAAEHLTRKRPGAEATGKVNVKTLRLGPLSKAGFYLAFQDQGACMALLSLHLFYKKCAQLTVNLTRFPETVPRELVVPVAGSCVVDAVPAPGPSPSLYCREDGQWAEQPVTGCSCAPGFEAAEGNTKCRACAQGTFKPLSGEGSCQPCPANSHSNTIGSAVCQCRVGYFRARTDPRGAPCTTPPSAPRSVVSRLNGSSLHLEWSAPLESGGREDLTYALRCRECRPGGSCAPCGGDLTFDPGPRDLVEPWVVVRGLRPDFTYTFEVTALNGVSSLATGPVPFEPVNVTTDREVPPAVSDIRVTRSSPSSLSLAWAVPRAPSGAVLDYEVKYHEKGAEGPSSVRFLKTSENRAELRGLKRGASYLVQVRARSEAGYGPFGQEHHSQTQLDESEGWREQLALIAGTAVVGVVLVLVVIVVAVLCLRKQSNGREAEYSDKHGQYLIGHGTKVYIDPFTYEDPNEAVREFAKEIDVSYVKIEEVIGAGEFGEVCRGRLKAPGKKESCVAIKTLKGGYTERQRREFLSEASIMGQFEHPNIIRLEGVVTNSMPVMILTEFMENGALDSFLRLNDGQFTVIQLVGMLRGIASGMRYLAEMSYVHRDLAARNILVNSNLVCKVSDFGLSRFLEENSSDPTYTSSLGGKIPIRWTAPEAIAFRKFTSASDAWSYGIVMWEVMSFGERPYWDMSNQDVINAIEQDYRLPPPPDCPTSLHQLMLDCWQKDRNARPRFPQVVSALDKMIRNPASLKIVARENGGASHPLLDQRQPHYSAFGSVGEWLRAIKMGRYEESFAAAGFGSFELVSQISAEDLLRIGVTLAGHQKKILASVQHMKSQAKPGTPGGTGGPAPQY
Excerpt: Surface plasmon resonance (SPR) binding and competition assays.
Immunoblotting, immunoprecipitation, and co-immunoprecipitation.

[1] = systemic exposure; cited from earlier work
Excerpt: Our group previously employed CCPM successfully to improve pharmacokinetics and enhance peptide stability for in vivo imaging applications[28]–[31]. The cross-linked core of CCPM prevents premature micelle disintegration, while the brush-like polyethylene glycol forms a dense protective layer on the micelle surface that minimizes micelle uptake by the organs of the mononuclear phagocytic system.

RF24 cells = assay: Tubule formation of immortalized endothelial cells on Matrigel; type: cell-based; conditions: BIDEN-AP 15 µM or EFNB2-Fc 2 nM, 24 h, number of nodes (Fig. 4A,B)
Procedure: Figure 4 BIDEN-AP–based agents inhibit tube formation and sensitize resistant endothelial cells to anti-VEGF antibody. (A,B) Tube formation by RF24 cells treated with EFNB2-Fc (2 nM) or BIDEN-AP (15 µM) compared to untreated controls (CTL). Representative data from three independent experiments are presented. (A) Representative microphotographs of tubes formed by RF24 cells are shown (n = 3). Images were taken at × 100 magnification. (B) Quantification of the number of nodes per field in three technical replicates. […] (C) Representative flow cytometry plots from three independent experiments of RF24_Bev cells are shown here. SYTOX-negative staining represents the live cell population.
Matrigel (Becton Dickinson, Bedford, MA) was used to assess formation of capillary-like structures by RF24 cells on a basement membrane. Twelve-well Costar plates (Corning, Corning, NY) were coated with Matrigel (10 mg/mL) according to the manufacturer’s instructions. RF24 cells (1.0 × 10^4 cells/well) were seeded on Matrigel-coated plates and incubated at 37 °C for 60 min. […] The degree of tubule formation was determined by the number of nodes. […] The nodes for each image were counted manually. Five images (×100 magnification) per treatment were counted double blindly. Data are expressed as a percentage of the number of tubes in untreated control wells.

recombinant human EphB4 = target: T2, recombinant human EphB4 (human, UniProt P54760 16-539); assay: SPR; BIACore 3000; rhEphB4 amine-coupled to CM5 chips; peptides injected at 1.6 nM to 800 nM, 30 uL/min, in duplicate; 25 C; HBSEP buffer (0.01 M HEPES pH 7.4, 0.15 M NaCl, 3 mM EDTA, 0.005% P20); 1:1 Langmuir binding model, KD = Koff/Kon; conditions: both partners purified
T2 construct: EphB4 (ephrin type-B receptor 4), human, recombinant; Amine-coupled to CM5 chips for SPR; a soluble extracellular form is likely; In the functional rows it stands for the EphB4 of the ovarian cancer cells; also called rhEphB4; source: bought: R&D Systems
T2 sequence (looked up): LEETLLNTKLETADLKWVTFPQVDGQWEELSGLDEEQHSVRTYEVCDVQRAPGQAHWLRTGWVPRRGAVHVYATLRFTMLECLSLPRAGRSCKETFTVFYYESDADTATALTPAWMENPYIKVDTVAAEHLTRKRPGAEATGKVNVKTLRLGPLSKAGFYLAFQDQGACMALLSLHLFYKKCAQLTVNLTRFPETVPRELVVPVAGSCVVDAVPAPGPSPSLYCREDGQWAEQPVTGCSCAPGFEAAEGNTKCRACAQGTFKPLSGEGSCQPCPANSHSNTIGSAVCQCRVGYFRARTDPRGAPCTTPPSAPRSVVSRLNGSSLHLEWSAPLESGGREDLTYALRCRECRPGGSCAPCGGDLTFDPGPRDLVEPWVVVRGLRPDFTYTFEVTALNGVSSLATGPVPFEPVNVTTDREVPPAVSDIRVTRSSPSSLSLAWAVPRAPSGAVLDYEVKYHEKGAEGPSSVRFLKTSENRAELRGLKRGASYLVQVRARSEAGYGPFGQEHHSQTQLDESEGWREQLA

[2] = target: T3, recombinant human EphB4 (human), P54760; assay: as above
T3 chain: T2 sequence (looked up)

[3] = target: T4, EphB4, purified recombinant human (rhEphB4) (human, UniProt P54760 16-987); assay: SPR; competition: serial dilutions of BIDEN-AP (2 nM to 1000 nM) mixed with human EphB4 (30 nM) and injected onto EFNB2-Fc-coated CM-5 chips; conditions: both partners purified
[4] = target: T4, EphB4, purified recombinant human …; assay: SPR; EphB4 immobilised on sensor chips, peptides or CCPM-BIDEN-AP injected; BIACore 3000; BIDEN-AP data fitted to a 1:1 mass transfer interaction model; details in the Supplementary Information; conditions: both partners purified

Molecule: CC[C@H](C)[C@H](NC(=O)[C@@H]1CCCN1C(=O)CNC(=O)[C@H](CC(N)=O)NC(=O)[C@@H]1CCCN1C(=O)[C@H](CO)NC(=O)[C@@H](Cc1ccccc1)NC(=O)[C@H](CC(C)C)NC(=O)[C@H](Cc1ccc(O)cc1)NC(=O)[C@H](CC(N)=O)NC(=O)[C@@H](N)[C@@H](C)O)C(=O)N[C@@H](C)C(=O)N[C@@H](CCCNC(=N)N)C(=O)N[C@@H](C)C(=O)N[C@@H](Cc1c[nH]c2ccccc12)C(N)=O [B4-005] (H-TNYL[dF]SPNGPIARAW-NH2)
- Kd (EphB4): 75 nM

Molecule: YSA-TNYL-RAW-dimer [B4-003]
- Kd (EphB4): 21 nM

Molecule: CC[C@H](C)[C@H](NC(=O)[C@@H]1CCCN1C(=O)CNC(=O)[C@H](CC(N)=O)NC(=O)[C@@H]1CCCN1C(=O)[C@H](CO)NC(=O)[C@H](Cc1ccccc1)NC(=O)[C@@H](CC(C)C)NC(=O)[C@H](Cc1ccc(O)cc1)NC(=O)[C@H](CC(N)=O)NC(=O)[C@@H](N)[C@@H](C)O)C(=O)N[C@@H](C)C(=O)N[C@@H](CCCNC(=N)N)C(=O)N[C@@H](C)C(=O)N[C@@H](Cc1c[nH]c2ccccc12)C(N)=O [B4-004] (H-TNY[dL]FSPNGPIARAW-NH2)
- Kd (EphB4): 65 nM

Molecule: TNYLFSPNGPIARA-NH2 [B4-008]
- Kd (EphB4): 13 nM

Molecule: CC[C@H](C)[C@H](NC(=O)[C@@H]1CCCN1C(=O)CNC(=O)[C@H](CC(N)=O)NC(=O)[C@@H]1CCCN1C(=O)[C@H](CO)NC(=O)[C@H](Cc1ccccc1)NC(=O)[C@H](CC(C)C)NC(=O)[C@H](Cc1ccc(O)cc1)NC(=O)[C@H](CC(N)=O)NC(=O)[C@@H](N)[C@@H](C)O)C(=O)N[C@@H](C)C(=O)N[C@H](CCCNC(=N)N)C(=O)N[C@@H](C)C(=O)N[C@@H](Cc1c[nH]c2ccccc12)C(N)=O [B4-002]
- Kd (EphB4): 39 nM

Molecule: TNYLFSPNGPIARAW-NH2 [TNYL-RAW]
- area-under-the time curve [AUC] [1]: 29.1 %ID h/mL

B1: EFNB2-Fc: ephrin B2 ligand fused to Fc, natural ligand of EphB4 (protein)
chain: IVLEPIYWNSSNSKFLPGQGLVLYPQIGDKLDIICPKVDSKTVGQYEYYKVYMVDKDQADRCTIKKENTPLLNCAKPDQDIKFTIKFQEFSPNLWGLEFQKNKDYYIISTSNGSLEGLDNQEGGVCQTRAMKILMKVGQDASSAGSTRNKDPTRRPELEAGTNGRSSTTSPFVKPNPGSSTDGNSAGHSGNNILGSEVALFA
modifications: left off: Fc, end not stated, kept
notes: ephrin B2 ligand fused to Fc, natural ligand of EphB4
- formation of capillary-like tubes (RF24 cells): significantly inhibited the formation of capillary-like tubes

B2: TNYL-RAW (peptide)
peptide: TNYLFSPNGPIARAW
notes: known EphB4 antagonist peptide, 15 residues (P1-P15); Made on Rink resin, so a C-terminal amide is likely; source: synthetic peptide (solid phase, Rink resin, HPLC purified)
- Kd (recombinant human EphB4): 3.1 nM

Molecule: TNYLFSPNGPIARAW (modifications not checked) [YSA-TNYL-RAW-dimer]
- Kd [2]: 21 nM

B3: BIDEN-AP (bi-directional ephrin agonist peptide), TNd(Y)LFSPNGPIARAW (peptide)
peptide: TN[dY]LFSPNGPIARAW
notes: TNYL-RAW with L-Tyr-P3 replaced by D-Tyr; source: synthetic peptide
- IC50 [3]: 4 nM
- Kd [4]: 7 nM

B4: Cyclo(KTNYLFSPNGPIARAWD) (peptide)
peptide: KTNYLFSPNGPIARAWD
modifications: also: cyclic, ring bond not given here
notes: TNYL-RAW with an added Lys before and Asp after it, cyclised; MW 1932 Da; also called B4-001; source: synthetic peptide (solid phase, Rink resin, HPLC purified)
- Kd (recombinant human EphB4): 4.4 nM
